Reference: patent US6469026B2, “Isoquinolone inhibitors of factor Xa” (Millennium Pharmaceuticals, Inc., priority 2000, dated 2002)

How the values were obtained:
factor Xa = factor Xa (Homo sapiens, UniProt P00742); test: factor Xa amidolytic assay (XA); format: biochemical; details: substrate S-2765, 5 min preincubation, room temperature, pH 7.5
Description: (§1) The compounds of the present invention are dissolved in buffer to give solutions containing concentrations such that assay concentrations range from 0 to 100 μM. In the assays for thrombin, prothrombinase and factor Xa, a synthetic chromogenic substrate is added to a solution containing test compound and the enzyme of interest and the residual catalytic activity of that enzyme is detennined spectrophotometrically. The IC50 of a compound is determined from the substrate turnover. The IC50 is the concentration of test compound giving 50% inhibition of the substrate turnover.
(§2) The factor Xa and thrombin assays were performed at room temperature, in 0.02 M TrisHCl buffer, pH 7.5, containing 0.15 M NaCl. The rates of hydrolysis of the para-nitroanilide substrate S-2765 (Chromogenix) for factor Xa, and the substrate Chromozym TH (Boehringer Mannheim) for thrombin following preincubation of the enzyme with inhibitor for 5 minutes at room temperature, and were determined using the Softmax 96-well plate reader (Molecular Devices), monitored at 405 nm to measure the time dependent appearance of p-nitroaniline.

thrombin = target: T1, thrombin (Homo sapiens, UniProt P00734); test: thrombin amidolytic assay (IIA); format: biochemical; details: substrate Chromozym TH, 5 min preincubation, room temperature, pH 7.5
T1 construct: proteolytic cleavage of its precursor prothrombin at the Arg-Thr linkage at positions 271-272 and the Arg-Ile linkage at positions 320-321
Description: as §1, with “The compounds of the present invention are dissolved in buffer to give solutions containing concentrations such that assay concentrations range from 0 to 100 μM.” left out
as §2

factor Xa, sequence (P00742 235-488 limits assumed): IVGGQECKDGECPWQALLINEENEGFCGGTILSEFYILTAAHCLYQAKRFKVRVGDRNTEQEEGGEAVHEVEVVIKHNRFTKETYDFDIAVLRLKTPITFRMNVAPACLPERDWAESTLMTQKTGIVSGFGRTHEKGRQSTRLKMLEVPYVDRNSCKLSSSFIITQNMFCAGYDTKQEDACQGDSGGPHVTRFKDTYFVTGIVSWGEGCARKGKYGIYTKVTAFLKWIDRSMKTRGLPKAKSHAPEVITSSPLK
factor Xa, sequence (P00742 41-179 partner limits assumed): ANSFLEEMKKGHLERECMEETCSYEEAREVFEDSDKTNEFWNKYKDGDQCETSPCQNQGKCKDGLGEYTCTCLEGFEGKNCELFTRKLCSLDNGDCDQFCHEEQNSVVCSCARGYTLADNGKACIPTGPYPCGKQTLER

Row | SMILES | IC50 (factor Xa) | IC50 (thrombin)
1 | CC(C)(C)OC(=O)C(Cc1ccc2ccc(C(=N)N)cc2c1)N1CCc2cc(OC3CCN(C(=N)N)CC3)ccc2C1=O (centres unmarked) [Example 20] | 168 nM | 101 µM
2 | COC(=O)C(Cc1cccc(C(=N)N)c1)N1CCc2cc(OC3CCN(C(C)=N)CC3)ccc2C1=O (centres unmarked) [Example 22] | 129 nM | 393 µM
3 | N=C(N)c1cccc(CC(C(=O)O)N2CCc3cc(OC4CCN(C(=N)N)CC4)ccc3C2=O)c1 (centres unmarked) [Example 15] | 794 nM | 
4 | N=C(N)c1ccc2ccc(CC(C(=O)O)N3CCc4cc(OC5CCN(C(=N)N)CC5)ccc4C3=O)cc2c1 (centres unmarked) [Example 18] | 282 nM | 
5 | CC(=N)N1CCC(Oc2ccc3c(c2)CCN(C(Cc2ccc4ccc(C(=N)N)cc4c2)C(=O)O)C3=O)CC1 (centres unmarked) [Example 17] | 348 nM | 
6 | COC(=O)C(Cc1ccc2ccc(C(=N)N)cc2c1)N1CCc2cc(OC3CCN(C(=N)N)CC3)ccc2C1=O (centres unmarked) [Example 16] | 693 nM | 228 µM
7 | CC(=N)N1CCC(Oc2ccc3c(c2)CCN(C(Cc2cccc(C(=N)N)c2)C(=O)OC(C)(C)C)C3=O)CC1 (centres unmarked) [Example 24] | 22.1 nM | 150 µM
8 | CC(=N)N1CCC(Oc2ccc3c(c2)CCN(C(Cc2cccc(C(=N)N)c2)C(=O)O)C3=O)CC1 (centres unmarked) [Example 14] | 810 nM | 

More lines, now with the values ahead:

Row | IC50 (factor Xa) | IC50 (thrombin) | SMILES
9 | 993 nM | 35.9 µM | CC(=N)N1CCC(Oc2ccc3c(c2)CCN(C(Cc2cccc(C(=N)N)c2)C(=O)NC(C)(C)C)C3=O)CC1 (centres unmarked) [Example 13]
10 | 258 nM | 119 µM | CC(=N)N1CCC(Oc2ccc3c(c2)CCN(C(Cc2ccc4ccc(C(=N)N)cc4c2)C(=O)OC(C)(C)C)C3=O)CC1 (centres unmarked) [Example 19]
11 | 152 nM | 402 µM | COC(=O)C(Cc1cccc(C(=N)N)c1)N1CCc2cc(OC3CCN(C(=N)N)CC3)ccc2C1=O (centres unmarked) [Example 21]
12 | 47.5 nM | 233 µM | CC(C)(C)OC(=O)C(Cc1cccc(C(=N)N)c1)N1CCc2cc(OC3CCN(C(=N)N)CC3)ccc2C1=O (centres unmarked) [Example 23]
